Where “and” joins values, the source holds several entries; their conditions need not be identical. Equal entries are not always repeated.

A word on the EC50: it is the concentration needed to bring the measured effect to its halfway point.

One assay has as its system HBV. As to the kind of experiment: Viral production from HepAD38 cells, viral load by qPCR of HBV core sequence. The class given is cell-based. To be noted: 5 days, supernatant HBV DNA by qPCR, read-out: Viral Load EC50 Activity range. On the procedure:
Assay Measuring Activity of Test Compounds on Viral Production from HepAD38 Cells
HepAD38 cells grown in a T-150 flask (Corning, cat #: 430825) with Growth Medium (DMEM/F12 (1:1) (Hyclone, cat #: SH30023.02), 1× Pen/Strep (Invitrogen, cat #: 15140-122), 10% FBS (Tissue Culture Biologics, cat #: 101), 250 μg/mL G418 (Alfa Aesar, cat #: J62671), 1 μg/mL Tetracycline (Teknova, cat #: T3320)) were detached with 0.25% trypsin-EDTA to (Invitrogen, cat #: 25200-056). Tetracycline-free treatment medium (15 mL DMEM/F12 (1:1) 1× Pen/step, with 2% FBS, Tet-system approved (Clontech, cat #: 631106) were then added to mix, transferred into a 50 ml conical tube (Falcon, cat #: 21008-918,) and spun at 1300 rpm for 5 min. Pelleted cells were then re-suspended/washed with 50 mL of 1×DPBS (Invitrogen, cat #: 14190-136) 2 times and 50 mL treatment medium twice. HepAD38 cells were then re-suspended with 10 mL of treatment medium, syringed and counted. Wells of 96-well clear bottom TC plate (Corning, cat #: 3904,) were seeded at 50,000 cells/well in 180 μL of treatment medium, and 20 μL of either 10% DMSO (Sigma, cat #: D4540) as controls or a 10× solution of test compounds in 10% DMSO in treatment media was added for a final compound concentration starting at 10 μM, and plates were incubated in 5% CO2 incubator at 37° C. for 5 days.
Subsequently viral load production was assayed by quantitative PCR (qPCR) of the HBV core sequence. PCR reaction mixture containing forward primers HBV-f 5′-CTGTGCCTTGGGTGGCTTT-3′ (IDT DNA), Reverse primers HBV-r 5′-[…]-3′ (IDT DNA), Fluorescent TaqMan™ Probes HBV-probe 5′-FAM/AGCTCCAAA/ZEN/[…]/3IABkFQ-3′ (IDT DNA), 10 μL/well of PerfeCTa® qPCR ToughMix® (Quanta Biosciences, Cat #: 95114-05K), and 6 μL/well of DEPC water (Alfa Aesar, cat #: J62087) was prepared. […] of supernatant was added to 16 μL of the reaction mixture in a qPCR plate (Applied Biosytems, Cat #: 4309849), sealed with a film (Applied Biosystems, Cat #: 4311971), centrifuged for a few seconds, and subsequently run on an Applied Biosystems VIIA7. The PCR mixture was incubated at 45° C. for 5 min, then 95° C. for 10 min, followed by 40 cycles of 10 seconds at 95° C. and 20 seconds at 60° C. Viral load was quantified against known HBV DNA standards by using ViiA™ 7 Software. Viral load in the supernatant from wells with treated cells were compared against viral load in supernatant from DMSO control wells (>3 per plate). Cell viability assay was performed with CellTiter-Glo Luminescent Cell Viability Assay (Promega, cat #: G7573) with modification. Mixed appropriate amount of CellTiter-Glo (CTG) 1×DPBS in a 1:1 ratio, added 100 uL of the mixture to each well followed completely removal of all supernatant in each well without touching cell surface. Incubated the plate at room temperature for 10 min on an orbital shaker, and then read the plate with a plate reader (TECAN M1000 or Envision). EC50 or CC50 values were calculated through curve-fitting of the four-parameter nonlinear-logistic-regression model (GraphPad Prism or Dotmatics). CC50 values were all >10 μM.
On the technique in general: Real-time PCR tracks product formation cycle by cycle.
For the molecule “5-Amino-N-(3-chloro-4-fluorophenyl)-1-methyl-3-(3-(pyridin-4-yl)cyclopentyl)-1H-pyrazole-4-carboxamide [AIA-271]”, the 50% effective concentration (EC50) was under 100 nM.
For “5-Amino-N-(3-chloro-4-fluorophenyl)-3-(3-(3-chlorophenyl)cyclopentyl)-1-methyl-1H-pyrazole-4-carboxamide [AIA-273]”, the EC50 is < 100 nM and 100 to 500 nM.
Still for that read-out and setting: the same measure for `Cn1cc(C2CCC(c3nn(C)c(N)c3C(=O)Nc3ccc(F)c(Cl)c3)C2)cn1` (single isomer, unassigned) [AIA-004-A, 5-Amino-N-(3-chloro-4-fluorophenyl)-1-methyl-3-(3-(1-methyl-1H-pyrazol-4-yl)cyclopentyl)-1H-pyrazole-4-carboxamide]: under 100 nM; for `Cn1cc(C2CCC(c3nn(C)c(N)c3C(=O)Nc3ccc(F)c(Cl)c3)C2)cn1` (single isomer, unassigned) [AIA-004-C, 5-Amino-N-(3-chloro-4-fluorophenyl)-1-methyl-3-(3-(1-methyl-1H-pyrazol-4-yl)cyclopentyl)-1H-pyrazole-4-carboxamide]: 100 to 500 nM; for `Cn1cc(C2CCC(c3nn(C)c(N)c3C(=O)Nc3ccc(F)c(Cl)c3)C2)cn1` (single isomer, unassigned) [AIA-004-D, 5-Amino-N-(3-chloro-4-fluorophenyl)-1-methyl-3-(3-(1-methyl-1H-pyrazol-4-yl)cyclopentyl)-1H-pyrazole-4-carboxamide]: under 100 nM.
Still for that read-out and setting: the figure for `Cn1nc(C2CC3CNC(=O)CC3C2)c(C(=O)Nc2ccc(F)c(Cl)c2)c1N` (single isomer, unassigned) [AIA-033-B, 5-Amino-N-(3-chloro-4-fluorophenyl)-1-methyl-3-(3-oxooctahydro-1H-cyclopenta[c]pyridin-6-yl)-1H-pyrazole-4-carboxamide] is under 100 nM; for `Cn1nc(C2CC3C[S+]([O-])CC3C2)c(C(=O)Nc2ccc(F)c(Cl)c2)c1N` (single isomer, unassigned) [AIA-056-B, 5-Amino-N-(3-chloro-4-fluorophenyl)-1-methyl-3-(2-oxidohexahydro-1H-cyclopenta[c]thiophen-5-yl)-1H-pyrazole-4-carboxamide] it is 500 to 10000 nM.
The same measure, in the same setting: the figure for `Cn1nc(C2CCC(c3ccccc3)C2)c(C(=O)Nc2ccc(F)c(Cl)c2)c1N` (single isomer, unassigned) [AIA-202A, 5-Amino-N-(3-chloro-4-fluorophenyl)-1-methyl-3-(3-phenylcyclopentyl)-1H-pyrazole-4-carboxamide] is under 100 nM; for `Cn1nc(C2CCC(c3ccccc3)C2)c(C(=O)Nc2ccc(F)c(Cl)c2)c1N` (single isomer, unassigned) [AIA-202B, 5-Amino-N-(3-chloro-4-fluorophenyl)-1-methyl-3-(3-phenylcyclopentyl)-1H-pyrazole-4-carboxamide] it is under 100 nM; for `Cn1nc(C2CCC(c3ccccc3)C2)c(C(=O)Nc2ccc(F)c(Cl)c2)c1N` (single isomer, unassigned) [AIA-202C, 5-Amino-N-(3-chloro-4-fluorophenyl)-1-methyl-3-(3-phenylcyclopentyl)-1H-pyrazole-4-carboxamide] it is 500 to 10000 nM.
Consider `Cn1nc(C2CCC(c3ccccc3)C2)c(C(=O)Nc2ccc(F)c(Cl)c2)c1N` (single isomer, unassigned) [AIA-202D, 5-Amino-N-(3-chloro-4-fluorophenyl)-1-methyl-3-(3-phenylcyclopentyl)-1H-pyrazole-4-carboxamide], for which the EC50 is under 100 nM.
The same measure, in the same setting: the figure for `Cn1nc(C2CC(c3ccccc3)C2)c(C(=O)Nc2ccc(F)c(Cl)c2)c1N` (single isomer, unassigned) [AIA-224A, 5-Amino-N-(3-chloro-4-fluorophenyl)-1-methyl-3-(3-phenylcyclobutyl)-1H-pyrazole-4-carboxamide] is under 100 nM.

Still in this assay, the particulars now being: Hepatitis B virus, HePAD38, 120 h, 5 days, supernatant HBV DNA by qPCR, read-out: Viral Load EC50 Activity range.
`Cn1cc(C2CCC(c3nn(C)c(N)c3C(=O)Nc3ccc(F)c(Cl)c3)C2)cn1` (single isomer, unassigned) [AIA-004-B, 5-Amino-N-(3-chloro-4-fluorophenyl)-1-methyl-3-(3-(1-methyl-1H-pyrazol-4-yl)cyclopentyl)-1H-pyrazole-4-carboxamide]: the EC50 was in the range of 100 to 500 nM.
Same read-out and setting: the figure for `Cn1nc(C2CC3CNC(=O)CC3C2)c(C(=O)Nc2ccc(F)c(Cl)c2)c1N` (single isomer, unassigned) [AIA-033-A, 5-Amino-N-(3-chloro-4-fluorophenyl)-1-methyl-3-(3-oxooctahydro-1H-cyclopenta[c]pyridin-6-yl)-1H-pyrazole-4-carboxamide] is 100 to 500 nM.
As for `Cn1nc(C2CC3C[S+]([O-])CC3C2)c(C(=O)Nc2ccc(F)c(Cl)c2)c1N` (single isomer, unassigned) [AIA-056-A, 5-Amino-N-(3-chloro-4-fluorophenyl)-1-methyl-3-(2-oxidohexahydro-1H-cyclopenta[c]thiophen-5-yl)-1H-pyrazole-4-carboxamide], the EC50 lay in the range of 500 to 10000 nM.
The same measure, in the same setting: the figure for `Cn1nc(C2CC(c3ccccc3)C2)c(C(=O)Nc2ccc(F)c(Cl)c2)c1N` (single isomer, unassigned) [AIA-224B, 5-Amino-N-(3-chloro-4-fluorophenyl)-1-methyl-3-(3-phenylcyclobutyl)-1H-pyrazole-4-carboxamide] is 100 to 500 nM.
Still for that read-out and setting: the same measure for `CCS(=O)(=O)CC1(O)CC2CC(c3nn(C)c(N)c3C(=O)Nc3ccc(F)c(Cl)c3)CC2C1` (single isomer, unassigned) [AIA-250-1, 5-Amino-N-(3-chloro-4-fluorophenyl)-3-(5-((ethylsulfonyl)nethyl)-5-hydroxyoctahydropentalen-2-yl)-1-methyl-1H-pyrazole-4-carboxamide]: under 100 nM; for `Cn1nc(C2CC3CC(O)(CS(=O)(=O)C4CC4)CC3C2)c(C(=O)Nc2ccc(F)c(Cl)c2)c1N` (single isomer, unassigned) [AIA-252-2, 5-Amino-N-(3-chloro-4-fluorophenyl)-3-(5-((cyclopropylsulfonyl)methyl)-5-hydroxyortahydropentalen-2-yl)-1-methyl-1H-pyrazole-4-carboxamide]: under 100 nM; for `CCC1OCC2(CC3CC(c4nn(C)c(N)c4C(=O)Nc4ccc(F)c(Cl)c4)CC3C2)O1` (single isomer, unassigned) [AIA-255-3, 5-Amino-N-(3-chloro-4-fluorophenyl)-3-(2′-ethylhexahydro-1H-spiro[pentalene-2,4′-[1,3]dioxolan]-5-yl)-1-methyl-1H-pyrazole-4-carboxamide]: under 100 nM.
Take `Cn1nc(C2CC3CC(O)(CSCC(F)(F)F)CC3C2)c(C(=O)Nc2ccc(F)c(Cl)c2)c1N` (single isomer, unassigned) [AIA-258-2, 5-Amino-N-(3-chloro-4-fluorophenyl)-3-(5-hydroxy-5-(((2,2,2-trifluoroethyl)thio)methyl)octahydropentalen-2-yl)-1-methyl-1H-pyrazole-4-carboxamide]: the EC50 is under 100 nM.
Turning to `Cn1nc(C2CC3CC(O)(CS(=O)(=O)C(C)(C)C)CC3C2)c(C(=O)Nc2ccc(F)c(Cl)c2)c1N` (single isomer, unassigned) [AIA-260-1, 5-Amino-3-(5-((tert-butylsulfonyl)methyl)-5-hydroxyoctahydropentalen-2-yl)-N-(3-chloro-4-fluorophenyl)-1-methyl-1H-pyrazole-4-carboxamide], the EC50 is under 100 nM.
Still for that read-out and setting: the figure for `Cn1nc(C2CC3CC(O)(CSC(C)(C)C)CC3C2)c(C(=O)Nc2ccc(F)c(Cl)c2)c1N` (single isomer, unassigned) [AIA-262-2, 5-Amino-3-(5-((tert-butylthio)methyl)-5-hydroxyoctahydropentalen-2-yl)-N-(3-chloro-4-fluorophenyl)-1-methyl-1H-pyrazole-4-carboxamide] is under 100 nM.

The values above are taken from US11560370B1, “5-membered heteroaryl carboxamide compounds for treatment of HBV” (Assembly Biosciences, Inc., priority 2018, dated 2023).
